Values quoted from earlier work as cited in patent US9750672B1, “Aloe derived mineral supplement” (AL Global Inc., priority 2013, dated 2017).

Columns and labels:
[1] = magnesium load 25 mmol; for increment in urinary magnesium during 4 hours post-load: p<0.05; for increment in urinary magnesium during second 2 hours post-load: p less than 0.05

Compound | solubility in simulated peak acid secretion (24.2 mEq hydrochloric acid/300 ml) [%] | solubility in water (water) | increment in urinary magnesium during 4 hours post-load [1] [mg/mg creatinine] | increment in urinary magnesium during second 2 hours post-load [1] [mg/mg creatinine]
[O]=[Mg] [Magnesium oxide] | 43 | virtually insoluble | 0.006 | 0.008
Magnesium citrate | – | – | 0.22 | 0.035
